This is an account of results in patent US20080181875A1, “USE OF CYCLOPHILIN AS ANTIOXIDANT AND PREVENTION OF CYCLOSPORIN A-INDUCED TOXICITY IN CELL TRANSPLANTATION BY OVEREXPRESSION OF CYCLOPHILIN” (priority 2002, published 2008).

Where a name gives a salt, the structure may show the parent alone. Some results are limits rather than exact numbers.

Data set [1] concerns H9c2 myoblasts. Briefly: Muscle differentiation of CypA-transfected cells in DM (morphology, time required). In kind it is cell-based, rat. Conditions: for time required for muscle differentiation: transfected H9c2 cells in DM, mock control 4-5 days; for muscle differentiation in DM: transfected H9c2 cells, no CsA. The procedure:
To determine the role of CypA, that is, PPIase, in muscle differentiation, time periods required for the complete differentiation of the three CypA gene-transfected cells, CypA/wt, CypA/W121F and CypA/R55A were measured while they were cultured in DM. In addition, their morphological changes were observed when they were completely differentiated.

The test system of data set [2] is H9c2 myoblasts. Briefly: Survival and morphology of CypA-transfected cells exposed to CsA or H2O2. Conditions: 10 μM CsA 72 h in DM; for protection from CsA- or H2O2-induced apoptotic cell death: 300 μM H2O2 12 h in DMEM/F-12. In kind it is cell-based, rat. The procedure:
Separately, the cells were exposed to 300 μM H2O2 for 12 hours in DMEM/F-12. […] Here, % cell survival is obtained by dividing […].

In data set [3] the test system is Bax. The data set is described as follows: Bax expression in CypA-transfected cells exposed to CsA or H2O2 (Western blot). Format: cell-based, rat. Conditions: exposed to CsA; similar results with H2O2. The text has this:
In the histograms of FIG. 7f, bars express the Bax levels in the samples as percentages compared to the mock-transfected cells.

The subject of another data set is ROS. The data set is described as follows: ROS content of CypA-transfected cells in DM with or without CsA (DCF FACS). In kind it is cell-based, rat. The note with it: DM containing no CsA or 10 μM CsA. Here is the method:
These transfected cells were grown at 37° C. in the presence of 10 μM DCF, washed with PBS, resuspended in […] of PBS, and measured for ROS content by FACS analysis.

The next data set relates to PPIase activity. The note with it: cited from earlier work.
The test system of a further data set is transplanted myoblasts. The note with it: cited from earlier work.
For data set [4], the system named is mitochondria membrane potential. Briefly: Mitochondria membrane potential by DiOC6[3] flow cytometry. Format: cell-based. Conditions: 48 hours in DM; 1-10 μM CsA, 9 μM FK506, 200 nM ascomycin. Here is the method:
H9c2 myoblasts cultured in PM and in DM in the absence of the drugs were measured for Δψm (control). In the FACS plots of FIG. 6b, the second peaks and the first peaks represent viable cells with high DiOC6[3] contents and dead cells with DiOC6[3]. Numerals mean percentages of the myoblasts with decreased Δψm.

A further data set concerns calcineurin. The data set is described as follows: Calcineurin phosphatase activity in H9c2 myoblasts (BioMol Quantizyme assay). Conditions: for influence on basal calcineurin phosphatase activity / concentration at which maximal inhibitory effect on the increased calcineurin phosphatase activity was observed: H9c2 myoblasts; for inhibition of calcineurin phosphatase activity induced during muscle differentiation: H9c2 myoblasts in DM; for concentration at which maximal inhibitory effect on the increased calcineurin phosphatase activity was observed: activity induced by DM (2 days) and PE (12 h).

The test system of the next data set is myogenin and MRF4. Briefly: Western blot of myogenic markers myogenin and MRF4. In kind it is cell-based, rat. Conditions: FK506, ascomycin in DM. Here is the method:
In addition, the protein expression levels of the myogenin and MRF4, early and late myogenic markers, were determined by Western blot analysis. To this end, myoblast extracts treated with the drugs were separated on SDS-PAGE and transferred onto a nitrocellulose membrane which was then blocked and reacted with predetermined primary antibodies (polyclonal myogenic antibody and polyclonal MRF4 antibody (Santa Cruz, Calif., USA) and then with a secondary antibody (anti-rabbit IgG-HRP conjugate with a chemiluminescent reactive enzyme able to detect the primary antibodies) (Santa Cruz, Calif., USA). Finally, the specimens were detected by enhanced ECL-plus chemiluminescence (Amersham Pharmacia Biotech, Piscataway, N.J., USA). Non-myogenic β-actin protein was used as a loading control.
(Immunoblotting shows a protein as a band on a membrane.)

The subject of data set [5] is H9c2 myoblasts. Briefly: Apoptosis by in-situ TUNEL assay and DNA fragmentation analysis. In kind it is cell-based, rat. Conditions: 72 hours in DM. Here is the method: TUNEL analysis was performed using ApopTag Flurescein In situ Apoptosis Detection kit (Intergen, Purchase, N.Y.). The results are given in FIG. 2c where arrows indicate TUNEL positive cells.
Once cells undergo apoptosis, the DNA is digested into fragments diferring by 180-200 bp by endonuclease. […] DNA fragmentation aiming to identify the DNA laddering pattern was performed as follows. […] The cell lysates thus obtained were treated with 50 μg/ml RNase A at 37° C. for 2 hours and then with 500 μg/ml proteinase K at 55° C. for 2 hours. DNA was extracted by a phenol/chloroform method and precipitated in 70% (v/v) isopropanol. After being centrifuged at 15,000 rpm for 15 min, the precipitates were dissolved in a TE buffer (10 mM Tris-HCl (pH 8.0), 1 mM EDTA).

Data set [6] deals with H9c2 rat cardiac myoblasts. The data set is described as follows: Morphological observation of muscle differentiation of myoblasts in DM. In kind it is cell-based. Conditions: 72 hours in DM. The procedure:
As a control, myoblasts were cultured in the absence of the drugs. Before use, the myoblasts were cultured to a cell confluency of about 70%.

In data set [7] the test system is Bax. Briefly: Western blot of apoptosis-accelerating protein Bax. Format: cell-based, rat. Conditions: DM; 1-10 μM CsA, 9 μM FK506, 200 nM ascomycin. The source says:
The results are shown in the upper part of FIG. 6a. β-actin is used as a loading control.
After being scanned, the Western blot analysis bands were quantified by Bio-Rad imaging densitometer. The results are shown in the lower part of FIG. 6a. In the histograms, the bars express the Bax levels of the samples as mean±standard deviation values of the fold numbers compared to those of the control.

The test system of a further data set is H9c2 cardiac myoblasts. The data set is described as follows: Cell cycle and apoptosis (sub-G0/G1) by propidium iodide FACS. Format: cell-based, rat. Conditions: DM 72 h.
In data set [8] the test system is H9c2 myoblasts. Briefly: Effect of antioxidants on muscle differentiation (morphology). Format: cell-based, rat. Conditions: 5 days in DM; 0.4 mM DFOM, 2000 units/ml catalase, 10 mM Tiron. Here is the method:
H9c2 myoblasts were cultured for 5 days in DM containing 0.4 mM of DFOM, 2000 units/ml of catalase, 10 mM of Tiron (4,5-dihydroxy-1,3-benzene-disulfonic acid) to induce differentiation, during which morphological changes were observed. The control is the myoblasts which were induced to differentiate in the absence of […].

Description for H9c2 cardiac myoblasts: Using 20,000 cells obtained from each of the cultures, measurements were made of percentages of cells in each phase of the cell cycle (G0/G1, S and G2/M) and percentages of cells in sub-G0/G1 aliquots (that is, apoptotic cells).

Turning to “CypA/W121F: mutated rat CypA with phenylalanine instead of tryptophan at position 121, transfected into H9c2 myoblasts”, in the data set on H9c2 myoblasts [1], the “time required for muscle differentiation” value was 14 to 15 days and the “muscle differentiation in DM” value is on record as “undergo muscle differentiation”. Also, in the data set on H9c2 myoblasts [2], the “protection from differentiation blockage” value was “not from differentiation blockage” and the “protection from CsA- or H2O2-induced apoptotic cell death” value is given as “protect cells”. The Bax expression entry in the data set with Bax [3] is recorded as “inhibited Bax expression”. The ROS level result in the data set on ROS was “removed a greater amount of ROS than did CypA/wt”. The “PPIase activity compared to the wild type protein” value in the data set with PPIase activity is “half”.
For `O=P1(N(CCCl)CCCl)NCCCO1` (centres unmarked) [cyclophosphamide], the “success of allogenic myoblast transplantation” value in the data set on transplanted myoblasts (in vivo) is reported as “did not increase the survival”.
Consider `C=CC[C@@H]1/C=C(\C)C[C@H](C)C[C@H](OC)[C@H]2O[C@@](O)(C(=O)C(=O)N3CCCC[C@H]3C(=O)O[C@H](/C(C)=C/[C@@H]3CC[C@@H](O)[C@H](OC)C3)[C@H](C)[C@@H](O)CC1=O)[C@H](C)C[C@@H]2OC` [FK506, tacrolimus], for which the “success rate of myoblast transplantation” value in the data set with transplanted myoblasts (clinical trials and animal model studies) is on record as no less than 95%. Besides, the “mitochondria membrane potential (Δψm)” value in data set [4] was “not observed”. Further, in the data set with calcineurin, the “influence on basal calcineurin phosphatase activity” value was “no influence”, the “inhibition of calcineurin phosphatase activity induced during muscle differentiation” value is on record as “completely inhibit” and the “concentration at which maximal inhibitory effect on the increased calcineurin phosphatase activity was observed” value was 1 µM. In addition, the “myogenin and MRF4 protein expression” value in the data set on myogenin and MRF4 is given as “no influence”. Moreover, the “apoptosis (TUNEL, DNA laddering)” value in the data set with H9c2 myoblasts [5] is “not related to apoptosis”. Also, the “morphological changes during muscle differentiation” value in [6] is “no morphological differences”. Further, the Bax expression result with Bax [7] is listed as “do not affect”. Also, in the data set with H9c2 cardiac myoblasts (FK506 9 μM), the “% Apoptosis (sub-G0/G1 fraction)” value turned out to be 11 ± 3%, the “% G0/G1” value amounted to 83 ± 5%, the “% G2/M” value is recorded as 4 ± 1% and the “% S” value was found to be 4 ± 1%.
As for `CC(=O)N(O)CCCCCNC(=O)CCC(=O)N(O)CCCCCNC(=O)CCC(=O)N(O)CCCCCN` [DFOM, deferoxamine mesylate], in the data set on H9c2 myoblasts [8], the “effect on muscle differentiation” value is on record as “blocking activity”.
On to `CC[C@@H]1/C=C(\C)C[C@H](C)C[C@H](OC)[C@H]2O[C@@](O)(C(=O)C(=O)N3CCCC[C@H]3C(=O)O[C@H](/C(C)=C/[C@@H]3CC[C@@H](O)[C@H](OC)C3)[C@H](C)[C@@H](O)CC1=O)[C@H](C)C[C@@H]2OC` [ascomycin], for which the “mitochondria membrane potential (Δψm)” value in [4] was “not observed”. Further, in the data set with calcineurin, the “influence on basal calcineurin phosphatase activity” value was “no influence”, the “inhibition of calcineurin phosphatase activity induced during muscle differentiation” value is “completely inhibit” and the “concentration at which maximal inhibitory effect on the increased calcineurin phosphatase activity was observed” value stood at 0.02 µM. Besides, the “myogenin and MRF4 protein expression” value in the data set with myogenin and MRF4 is listed as “no influence”. In addition, in the data set on H9c2 myoblasts [5], the “apoptosis (TUNEL, DNA laddering)” value is “not related to apoptosis”. Besides, the “morphological changes during muscle differentiation” value in [6] is “no morphological differences”. Further, the Bax expression entry in the data set on Bax [7] was “do not affect”. Also, in the data set on H9c2 cardiac myoblasts (Ascomycin 200 nM), the “% Apoptosis (sub-G0/G1 fraction)” value is given as 10 ± 3%, the “% G0/G1” value worked out at 85 ± 3%, the “% G2/M” value is listed as 4 ± 1% and the “% S” value is recorded as 2 ± 1%.
On to `O=S(=O)(O)c1cc(O)c(O)c(S(=O)(=O)O)c1` [Tiron, 4,5-dihydroxy-1,3-benzene-disulfonic acid], for which, in the data set on H9c2 myoblasts [8], the “effect on muscle differentiation” value is on record as “blocking activity”.
For “CypA/wt: wild type rat brain CypA gene transfected into and overexpressed in H9c2 rat cardiac myoblasts”, in the data set with H9c2 myoblasts [1], the “time required for muscle differentiation” value was 8 to 9 days and the “muscle differentiation in DM” value is given as “undergo muscle differentiation”. Also, in the data set with H9c2 myoblasts [2], the “protection from differentiation blockage” value is given as “not from differentiation blockage” and the “protection from CsA- or H2O2-induced apoptotic cell death” value is “protect cells”. Moreover, in the data set with Bax [3], the Bax expression entry is “inhibited Bax expression”. In addition, the ROS level result in the data set on ROS is reported as “reduced the ROS level”.
As to “CypA/R55A: mutated rat CypA with alanine instead of arginine at position 55, transfected into H9c2 myoblasts”, the “muscle differentiation in DM” value in the data set on H9c2 myoblasts [1] was “no traces of differentiation”. Besides, the “protection from CsA- or H2O2-induced apoptotic cell death” value in the data set with H9c2 myoblasts [2] was “increases ROS-induced apoptosis”. Also, in the data set on Bax [3], the Bax expression entry was “increased Bax expression”. Also, the ROS level result with ROS is on record as “significantly increased ROS generation”. The “PPIase activity compared to the wild type protein” value in the data set on PPIase activity is given as “one thousandth”.

B1: catalase: antioxidant enzyme purchased from Sigma (protein, UniProt P00432 2-527, looked up)
Catalase: ADNRDPASDQMKHWKEQRAAQKPDVLTTGGGNPVGDKLNSLTVGPRGPLLVQDVVFTDEMAHFDRERIPERVVHAKGAGAFGYFEVTHDITRYSKAKVFEHIGKRTPIAVRFSTVAGESGSADTVRDPRGFAVKFYTEDGNWDLVGNNTPIFFIRDALLFPSFIHSQKRNPQTHLKDPDMVWDFWSLRPESLHQVSFLFSDRGIPDGHRHMNGYGSHTFKLVNANGEAVYCKFHYKTDQGIKNLSVEDAARLAHEDPDYGLRDLFNAIATGNYPSWTLYIQVMTFSEAEIFPFNPFDLTKVWPHGDYPLIPVGKLVLNRNPVNYFAEVEQLAFDPSNMPPGIEPSPDKMLQGRLFAYPDTHRHRLGPNYLQIPVNCPYRARVANYQRDGPMCMMDNQGGAPNYYPNSFSAPEHQPSALEHRTHFSGDVQRFNSANDDNVTQVRTFYLKVLNEEQRKRLCENIAGHLKDAQLFIQKKAVKNFSDVHPEYGSRIQALLDKYNEEKPKNAVHTYVQHGSHLSAREKANL
B1: in the data set on H9c2 myoblasts [8], the “effect on muscle differentiation” value was “blocking activity”.
